Read-outs that look alike come from different tables or passages of the source.
What was measured:
Format in all cases: in vivo
[1] = test system: ducksalad (Heteranthera limosa); assay: Test B flooded paddy test; conditions: Heteranthera limosa, 250 g ai/ha, Flood
Outline: (§1)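 Flooding to 3 cm over soil accompanied treatment, which consisted of adding compound to the standing water around 2-leaf plants; depth was then maintained. Visual assessment versus controls followed at 13 to 15 d (scale 0–100, 0 meaning no effect).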

[2] = test system: barnyardgrass (Echinochloa crus-galli); assay: Test B flooded paddy test; conditions: Echinochloa crus-galli, 250 g ai/ha, Flood
Outline: as §1

[3] = test system: sedge, umbrella (small-flower umbrella sedge, Cyperus difformis); assay: Test B flooded paddy test; conditions: Cyperus difformis, 250 g ai/ha, Flood
Outline: as §1

rice (Oryra sativa) = assay: Test B flooded paddy test; conditions: Oryza sativa, 250 g ai/ha, Flood
Outline: as §1

[4] = test system: ragweed (common ragweed, Ambrosia elatior); assay: Test A postemergence; conditions: Ambrosia artemisiifolia, post-emergence, 240 h; for pest or weed control at 125 g/ha: 125 g ai/ha; for pest or weed control at 500 g/ha: 500 g ai/ha
Outline: (§2)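 Compounds were formulated in a non-phytotoxic solvent mixture with surfactant and applied as a preemergence directed soil spray after seeding, or sprayed postemergence over plants 2 to 10 cm tall at the one- to two-leaf stage. Evaluation after about 10 d compared treated with untreated controls, using a scale from 0 (no effect) to 100 (complete control).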

[5] = test system: wheat (Triticum aestivum); assay: Test A postemergence; conditions: Triticum aestivum, post-emergence, 240 h; for plant injury at 125 g/ha: 125 g ai/ha; for plant injury at 500 g/ha: 500 g ai/ha
Outline: as §2

corn (Zea mays) = assay: Test A postemergence; conditions: Zea mays, post-emergence, 240 h
Outline: as §2

[6] = test system: giant foxtail (Setaria faberii); assay: Test A postemergence; conditions: Setaria faberi, post-emergence, 240 h; for pest or weed control at 125 g/ha: 125 g ai/ha; for pest or weed control at 500 g/ha: 500 g ai/ha
Outline: as §2

[7] = test system: pigweed (Amaranthus retroflexus); assay: Test A postemergence; conditions: Amaranthus retroflexus, post-emergence, 240 h; for pest or weed control at 125 g/ha: 125 g ai/ha; for pest or weed control at 500 g/ha: 500 g ai/ha
Outline: as §2

[8] = test system: Galium (catchweed bedstraw, Galium aparine); assay: Test A postemergence; conditions: Galium, post-emergence, 240 h; for pest or weed control at 125 g/ha: 125 g ai/ha; for pest or weed control at 500 g/ha: 500 g ai/ha
Outline: as §2

Kochia (Kochia scoparia) = assay: Test A postemergence; conditions: Bassia scoparia, post-emergence, 240 h; for pest or weed control at 125 g/ha: 125 g ai/ha; for pest or weed control at 500 g/ha: 500 g ai/ha
Outline: as §2

[9] = test system: barnyardgrass (Echinochloa crus-galli); assay: Test A postemergence; conditions: Echinochloa crus-galli, post-emergence, 240 h; for pest or weed control at 125 g/ha: 125 g ai/ha; for pest or weed control at 500 g/ha: 500 g ai/ha
Outline: as §2

[10] = test system: blackgrass (Alopecurus myosuroides); assay: Test A postemergence; conditions: Alopecurus myosuroides, post-emergence, 240 h; for pest or weed control at 125 g/ha: 125 g ai/ha; for pest or weed control at 500 g/ha: 500 g ai/ha
Outline: as §2

[11] = test system: ryegrass, Italian (Italian ryegrass, Lolium multiflorum); assay: Test A postemergence; conditions: Lolium multiflorum, post-emergence, 240 h; for pest or weed control at 125 g/ha: 125 g ai/ha; for pest or weed control at 500 g/ha: 500 g ai/ha
Outline: as §2

SMILES: COc1cc(C(F)(F)F)ccc1[C@H]1CN(C)C(=O)[C@@H]1C(=O)Nc1cccc(F)c1C [Compound 1205]
- pest or weed control at 250 g/ha ([1]; 0 to 100 scale where 0 is no effect and 100 is complete control, read-out: Ducksalad plant response rating): 100%
- pest or weed control at 250 g/ha ([2]; 0 to 100 scale where 0 is no effect and 100 is complete control, read-out: Barnyardgrass plant response rating): 40%
- pest or weed control at 250 g/ha ([3]; 0 to 100 scale where 0 is no effect and 100 is complete control, read-out: Sedge, Umbrella plant response rating): 0%
- pest or weed control at 250 g/ha (rice (Oryra sativa); 0 to 100 scale where 0 is no effect and 100 is complete control, read-out: Rice plant response rating): 20%
- pest or weed control at 125 g/ha ([4]; postemergence, visual injury vs untreated controls after approx. 10 d, 0 = no effect, 100 = complete control, read-out: Ragweed plant response rating (0 to 100 scale)): 0%
- pest or weed control at 500 g/ha ([4]; postemergence, 0 to 100 scale, 0 is no effect, 100 is complete control, read-out: Ragweed plant response rating): 0%
- plant injury at 125 g/ha ([5]; postemergence, visual injury vs untreated controls after approx. 10 d, 0 = no effect, 100 = complete control, read-out: Wheat plant response rating (0 to 100 scale)): 30%
- plant injury at 500 g/ha ([5]; postemergence, 0 to 100 scale, 0 is no effect, 100 is complete control, read-out: Wheat plant response rating): 40%
- plant injury at 125 g/ha (corn (Zea mays); 125 g ai/ha, postemergence, visual injury vs untreated controls after approx. 10 d, 0 = no effect, 100 = complete control, read-out: Corn plant response rating (0 to 100 scale)): 70%
- plant injury at 500 g/ha (corn (Zea mays); 500 g ai/ha, postemergence, 0 to 100 scale, 0 is no effect, 100 is complete control, read-out: Corn plant response rating): 80%
- pest or weed control at 125 g/ha ([6]; postemergence, visual injury vs untreated controls after approx. 10 d, 0 = no effect, 100 = complete control, read-out: Foxtail, Giant plant response rating (0 to 100 scale)): 80%
- pest or weed control at 500 g/ha ([6]; postemergence, 0 to 100 scale, 0 is no effect, 100 is complete control, read-out: Foxtail, Giant plant response rating): 80%
- pest or weed control at 125 g/ha ([7]; postemergence, visual injury vs untreated controls after approx. 10 d, 0 = no effect, 100 = complete control, read-out: Pigweed plant response rating (0 to 100 scale)): 0%
- pest or weed control at 500 g/ha ([7]; postemergence, 0 to 100 scale, 0 is no effect, 100 is complete control, read-out: Pigweed plant response rating): 0%
- pest or weed control at 125 g/ha ([8]; postemergence, visual injury vs untreated controls after approx. 10 d, 0 = no effect, 100 = complete control, read-out: Galium plant response rating (0 to 100 scale)): 20%
- pest or weed control at 500 g/ha ([8]; postemergence, 0 to 100 scale, 0 is no effect, 100 is complete control, read-out: Galium plant response rating): 40%
- pest or weed control at 125 g/ha (Kochia (Kochia scoparia); postemergence, visual injury vs untreated controls after approx. 10 d, 0 = no effect, 100 = complete control, read-out: Kochia plant response rating (0 to 100 scale)): 0%
- pest or weed control at 500 g/ha (Kochia (Kochia scoparia); postemergence, 0 to 100 scale, 0 is no effect, 100 is complete control, read-out: Kochia plant response rating): 0%
- pest or weed control at 125 g/ha ([9]; postemergence, visual injury vs untreated controls after approx. 10 d, 0 = no effect, 100 = complete control, read-out: Barnyardgrass plant response rating (0 to 100 scale)): 40%
- pest or weed control at 500 g/ha ([9]; postemergence, 0 to 100 scale, 0 is no effect, 100 is complete control, read-out: Barnyardgrass plant response rating): 50%
- pest or weed control at 125 g/ha ([10]; postemergence, visual injury vs untreated controls after approx. 10 d, 0 = no effect, 100 = complete control, read-out: Blackgrass plant response rating (0 to 100 scale)): 0%
- pest or weed control at 500 g/ha ([10]; postemergence, 0 to 100 scale, 0 is no effect, 100 is complete control, read-out: Blackgrass plant response rating): 20%
- pest or weed control at 125 g/ha ([11]; postemergence, visual injury vs untreated controls after approx. 10 d, 0 = no effect, 100 = complete control, read-out: Ryegrass, Italian plant response rating (0 to 100 scale)): 0%
- pest or weed control at 500 g/ha ([11]; postemergence, 0 to 100 scale, 0 is no effect, 100 is complete control, read-out: Ryegrass, Italian plant response rating): 30%

SMILES: Cc1ccc([C@H]2CN(C)C(=O)[C@@H]2C(=O)Nc2ccccc2F)cc1Cl [Compound 1384]
- pest or weed control at 250 g/ha ([1]; 360 h, visually evaluated after 13 to 15 d, read-out: Plant response rating, Ducksalad (0 to 100 scale where 0 is no effect and 100 is complete control)): 100%
- pest or weed control at 250 g/ha ([2]; 360 h, visually evaluated after 13 to 15 d, read-out: Plant response rating, Barnyardgrass (0 to 100 scale where 0 is no effect and 100 is complete control)): 65%
- pest or weed control at 250 g/ha ([3]; 360 h, visually evaluated after 13 to 15 d, read-out: Plant response rating, Sedge, Umbrella (0 to 100 scale where 0 is no effect and 100 is complete control)): 0%
- pest or weed control at 250 g/ha (rice (Oryra sativa); 360 h, visually evaluated after 13 to 15 d, read-out: Plant response rating, Rice (0 to 100 scale where 0 is no effect and 100 is complete control)): 40%
- pest or weed control at 125 g/ha ([4]; Postemergence, visual injury after approx. 10 d, 0 to 100 scale, 0 no effect, 100 complete control, read-out: Plant response rating, Ragweed): 40%
- pest or weed control at 500 g/ha ([4]; Postemergence, visual injury, 0 to 100 scale (0 no effect, 100 complete control), approx. 10 d, read-out: Plant response rating, Ragweed): 40%
- plant injury at 125 g/ha ([5]; Postemergence, visual injury after approx. 10 d, 0 to 100 scale, 0 no effect, 100 complete control, read-out: Plant response rating, Wheat): 0%
- plant injury at 500 g/ha ([5]; Postemergence, visual injury, 0 to 100 scale (0 no effect, 100 complete control), approx. 10 d, read-out: Plant response rating, Wheat): 50%
- Corn plant response rating (crop injury, 0 = no effect, 100 = complete kill) at 125 g/ha (corn (Zea mays); Postemergence, 125 g ai/ha, visual injury after approx. 10 d, 0 to 100 scale, 0 no effect, 100 complete control): 70%
- Corn plant response rating (crop injury, 0 = no effect, 100 = complete kill) at 500 g/ha (corn (Zea mays); Postemergence, 500 g ai/ha, visual injury, 0 to 100 scale (0 no effect, 100 complete control), approx. 10 d): 90%
- pest or weed control at 125 g/ha ([6]; Postemergence, visual injury after approx. 10 d, 0 to 100 scale, 0 no effect, 100 complete control, read-out: Plant response rating, Foxtail, Giant): 80%
- pest or weed control at 500 g/ha ([6]; Postemergence, visual injury, 0 to 100 scale (0 no effect, 100 complete control), approx. 10 d, read-out: Plant response rating, Foxtail, Giant): 90%
- pest or weed control at 125 g/ha ([7]; Postemergence, visual injury after approx. 10 d, 0 to 100 scale, 0 no effect, 100 complete control, read-out: Plant response rating, Pigweed): 0%
- pest or weed control at 500 g/ha ([7]; Postemergence, visual injury, 0 to 100 scale (0 no effect, 100 complete control), approx. 10 d, read-out: Plant response rating, Pigweed): 20%
- pest or weed control at 125 g/ha ([8]; Postemergence, visual injury after approx. 10 d, 0 to 100 scale, 0 no effect, 100 complete control, read-out: Plant response rating, Galium): 30%
- pest or weed control at 500 g/ha ([8]; Postemergence, visual injury, 0 to 100 scale (0 no effect, 100 complete control), approx. 10 d, read-out: Plant response rating, Galium): 70%
- pest or weed control at 125 g/ha (Kochia (Kochia scoparia); Postemergence, visual injury after approx. 10 d, 0 to 100 scale, 0 no effect, 100 complete control, read-out: Plant response rating, Kochia): 40%
- pest or weed control at 500 g/ha (Kochia (Kochia scoparia); Postemergence, visual injury, 0 to 100 scale (0 no effect, 100 complete control), approx. 10 d, read-out: Plant response rating, Kochia): 60%
- pest or weed control at 125 g/ha ([9]; Postemergence, visual injury after approx. 10 d, 0 to 100 scale, 0 no effect, 100 complete control, read-out: Plant response rating, Barnyardgrass): 90%
- pest or weed control at 500 g/ha ([9]; Postemergence, visual injury, 0 to 100 scale (0 no effect, 100 complete control), approx. 10 d, read-out: Plant response rating, Barnyardgrass): 90%
- pest or weed control at 125 g/ha ([10]; Postemergence, visual injury after approx. 10 d, 0 to 100 scale, 0 no effect, 100 complete control, read-out: Plant response rating, Blackgrass): 0%
- pest or weed control at 500 g/ha ([10]; Postemergence, visual injury, 0 to 100 scale (0 no effect, 100 complete control), approx. 10 d, read-out: Plant response rating, Blackgrass): 30%
- pest or weed control at 125 g/ha ([11]; Postemergence, visual injury after approx. 10 d, 0 to 100 scale, 0 no effect, 100 complete control, read-out: Plant response rating, Ryegrass, Italian): 30%
- pest or weed control at 500 g/ha ([11]; Postemergence, visual injury, 0 to 100 scale (0 no effect, 100 complete control), approx. 10 d, read-out: Plant response rating, Ryegrass, Italian): 30%
